Where two headings read alike, the source gives them in different places.
Key:
[1] = target: CDK7/Cyclin H/MAT1 complex (Homo sapiens, UniProt P50613); test: CDK7 inhibition assay (Caliper/LabChip EZ Reader kinase assay); type: biochemical; details: Table 1; CDK7/Cyclin H/MAT1 6 nM, ATP 2 mM, 35 min at 27° C.
Protocol: (§1) Compounds of the invention were assayed for inhibition of CDK7, CDK9, CDK12, and CDK2 activity at Biortus Biosciences (Jiangyin, Jiangsu Province, P.R. of China) using kinase assays for each CDK developed with a Caliper/LabChip EZ Reader (Perkin Elmer, Waltham, MA).
(§2) Furthermore, the CDK9 inhibition assay used CDK9/Cyclin T1 complex (8 nM) and “5-FAM-CDK9tide” peptide substrate (2 μM, synthesized fluorophore-labeled peptide with the following sequence: 5-FAM-GSRTPMY-NH2 where 5-FAM is defined above and NH2 signifies a C-terminal amide) with 10 mM MgCl2 in the buffer composition listed above. […] Additionally, the CDK2 inhibition assay used CDK2/Cyclin E1 complex (0.5 nM) and “5-FAM-CDK7tide” ([…]) as defined above, with 2 mM MgCl2 in the buffer composition listed above.

CDK9/Cyclin T1 complex = CDK9/Cyclin T1 complex (Homo sapiens, UniProt P50750); test: CDK9 inhibition assay (Caliper/LabChip EZ Reader kinase assay); type: biochemical; details: Table 1; CDK9/Cyclin T1 8 nM, ATP 2 mM, 15 min at 27° C.
Sequence of CDK9/Cyclin T1 complex (P50750 whole entry, species assumed): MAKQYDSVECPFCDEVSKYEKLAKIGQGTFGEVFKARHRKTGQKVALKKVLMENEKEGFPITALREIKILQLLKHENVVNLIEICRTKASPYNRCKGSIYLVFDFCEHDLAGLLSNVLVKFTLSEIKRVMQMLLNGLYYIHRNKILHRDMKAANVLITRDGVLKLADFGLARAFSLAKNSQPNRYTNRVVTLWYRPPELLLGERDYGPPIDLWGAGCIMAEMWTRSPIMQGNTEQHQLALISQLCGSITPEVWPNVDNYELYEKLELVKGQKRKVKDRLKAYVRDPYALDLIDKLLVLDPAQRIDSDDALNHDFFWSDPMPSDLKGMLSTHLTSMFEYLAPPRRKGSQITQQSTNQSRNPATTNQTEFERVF
Sequence of CDK9/Cyclin T1 complex (O60563 whole entry partner, species assumed): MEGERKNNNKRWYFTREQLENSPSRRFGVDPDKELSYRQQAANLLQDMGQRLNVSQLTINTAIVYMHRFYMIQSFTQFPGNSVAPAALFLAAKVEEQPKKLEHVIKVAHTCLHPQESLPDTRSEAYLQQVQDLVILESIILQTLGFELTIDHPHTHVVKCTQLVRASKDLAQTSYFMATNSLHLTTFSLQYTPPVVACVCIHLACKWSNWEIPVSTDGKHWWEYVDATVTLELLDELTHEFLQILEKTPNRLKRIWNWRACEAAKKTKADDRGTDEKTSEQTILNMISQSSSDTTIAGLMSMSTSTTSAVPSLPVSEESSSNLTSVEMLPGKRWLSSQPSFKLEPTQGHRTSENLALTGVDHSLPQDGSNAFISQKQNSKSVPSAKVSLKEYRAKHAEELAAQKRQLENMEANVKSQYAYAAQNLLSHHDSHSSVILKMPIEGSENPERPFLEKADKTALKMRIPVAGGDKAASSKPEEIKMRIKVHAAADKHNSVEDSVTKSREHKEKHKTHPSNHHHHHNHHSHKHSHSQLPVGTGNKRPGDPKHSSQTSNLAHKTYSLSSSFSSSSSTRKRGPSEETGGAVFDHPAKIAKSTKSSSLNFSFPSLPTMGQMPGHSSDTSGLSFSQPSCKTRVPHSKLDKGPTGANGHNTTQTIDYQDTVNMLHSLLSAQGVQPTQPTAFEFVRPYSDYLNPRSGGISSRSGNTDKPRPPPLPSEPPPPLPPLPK
Protocol: as §1, §2

[2] = target: T1, CDK12 (aa686-1082)/Cyclin K complex (Homo sapiens, UniProt Q9NYV4); test: CDK12 inhibition assay (Caliper/LabChip EZ Reader kinase assay); type: biochemical; details: Table 1; CDK12 (aa686-1082)/Cyclin K 50 nM, ATP 2 mM, 3 hr at 27° C.
T1 construct: CDK12 (aa686-1082)/Cyclin K complex
T1 sequence (Q9NYV4 686-1082, species assumed): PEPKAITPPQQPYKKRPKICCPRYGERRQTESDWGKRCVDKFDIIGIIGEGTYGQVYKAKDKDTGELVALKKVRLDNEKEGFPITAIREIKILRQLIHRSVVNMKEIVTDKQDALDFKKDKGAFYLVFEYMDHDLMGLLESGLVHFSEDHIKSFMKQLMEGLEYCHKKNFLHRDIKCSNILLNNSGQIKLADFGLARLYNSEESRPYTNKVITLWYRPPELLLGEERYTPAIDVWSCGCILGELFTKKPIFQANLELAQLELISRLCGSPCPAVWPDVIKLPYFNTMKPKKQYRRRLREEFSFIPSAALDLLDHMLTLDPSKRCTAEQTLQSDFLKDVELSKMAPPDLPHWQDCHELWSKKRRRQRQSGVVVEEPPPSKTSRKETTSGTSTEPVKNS
T1 sequence (O75909 whole entry partner, species assumed, the tested form may be a part): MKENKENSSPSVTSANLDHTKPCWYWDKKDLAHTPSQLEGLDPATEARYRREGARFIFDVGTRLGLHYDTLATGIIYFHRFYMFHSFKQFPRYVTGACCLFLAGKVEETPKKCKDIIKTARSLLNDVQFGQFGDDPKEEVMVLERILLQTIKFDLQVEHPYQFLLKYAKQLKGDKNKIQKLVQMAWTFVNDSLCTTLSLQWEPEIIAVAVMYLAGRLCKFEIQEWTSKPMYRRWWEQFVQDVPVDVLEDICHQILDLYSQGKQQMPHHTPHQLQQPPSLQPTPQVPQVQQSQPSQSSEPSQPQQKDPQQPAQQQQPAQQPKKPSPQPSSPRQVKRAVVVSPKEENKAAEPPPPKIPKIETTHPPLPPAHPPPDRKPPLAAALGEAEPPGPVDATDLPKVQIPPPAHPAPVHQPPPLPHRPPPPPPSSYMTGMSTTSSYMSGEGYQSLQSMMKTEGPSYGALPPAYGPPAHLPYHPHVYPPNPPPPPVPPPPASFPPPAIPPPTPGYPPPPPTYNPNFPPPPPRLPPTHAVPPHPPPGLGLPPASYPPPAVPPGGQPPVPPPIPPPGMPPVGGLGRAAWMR
Protocol: as §1, §2

CDK2/Cyclin E1 complex = CDK2/Cyclin E1 complex (Homo sapiens, UniProt P24941); test: CDK2 inhibition assay (Caliper/LabChip EZ Reader kinase assay); type: biochemical; details: Table 1; CDK2/Cyclin E1 0.5 nM, ATP 2 mM, 35 min at 27° C.
Protocol: as §1, §2

A673 cells = test: Inhibition of proliferation of A673 cells (CyQUANT, 72 hour); type: cell-based, human; details: A673 cells, 72 hour, CyQUANT, read-out: Inhibition of Proliferation of A673 Cells (calculated IC50)
Protocol: A673 cells are a cell line derived from human […] Ewing's sarcoma. Representative compounds of the invention were tested at different concentrations (from […]; 0.5 log serial dilutions) for their ability to inhibit the proliferation of A673 cells. Known CDK inhibitors dinaciclib or N-((1S,3R)-3-((5-chloro-4-(1H-indol-3-yl)pyrimidin-2-yl)amino)cyclohexyl)-5-((E)-4-(dimethylamino)but-2-enamido)picolinamide and triptolide were used as positive controls. Cells were grown in Dulbecco's Modified Eagle's Medium, +10% FBS+1 mM Sodium Pyruvate. The cells were cultured at 37° C. in a humidified chamber in the presence of 5% CO2. Proliferation assays were conducted over a 72 hour time period. CyQUANT® (Life Technologies, Chicago, IL USA) was used to assess the anti-proliferative effects of the compounds following manufacturer's directions and utilizing the reagents supplied with the CyQUANT® kit.

Sequence of CDK7/Cyclin H/MAT1 complex (P50613 whole entry, species assumed): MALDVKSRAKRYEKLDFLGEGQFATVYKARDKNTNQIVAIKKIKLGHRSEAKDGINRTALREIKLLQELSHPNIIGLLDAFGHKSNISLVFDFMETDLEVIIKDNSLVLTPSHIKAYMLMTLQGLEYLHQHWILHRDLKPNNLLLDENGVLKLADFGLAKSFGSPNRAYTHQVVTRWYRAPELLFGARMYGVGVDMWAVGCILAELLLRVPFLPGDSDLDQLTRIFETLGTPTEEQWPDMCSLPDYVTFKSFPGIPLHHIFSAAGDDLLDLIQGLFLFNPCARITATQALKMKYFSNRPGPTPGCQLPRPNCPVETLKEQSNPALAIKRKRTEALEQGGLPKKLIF
Sequence of CDK7/Cyclin H/MAT1 complex (P51946 whole entry partner, species assumed): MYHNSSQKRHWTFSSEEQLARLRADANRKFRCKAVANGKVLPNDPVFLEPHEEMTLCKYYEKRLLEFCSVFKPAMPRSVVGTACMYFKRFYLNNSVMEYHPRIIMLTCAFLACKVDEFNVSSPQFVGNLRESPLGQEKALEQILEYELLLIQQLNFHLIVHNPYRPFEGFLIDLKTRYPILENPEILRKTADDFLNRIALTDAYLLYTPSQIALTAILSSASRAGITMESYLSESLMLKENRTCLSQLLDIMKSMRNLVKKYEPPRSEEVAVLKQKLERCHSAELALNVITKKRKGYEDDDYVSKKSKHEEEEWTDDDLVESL
Sequence of CDK7/Cyclin H/MAT1 complex (P51948 whole entry partner, species assumed): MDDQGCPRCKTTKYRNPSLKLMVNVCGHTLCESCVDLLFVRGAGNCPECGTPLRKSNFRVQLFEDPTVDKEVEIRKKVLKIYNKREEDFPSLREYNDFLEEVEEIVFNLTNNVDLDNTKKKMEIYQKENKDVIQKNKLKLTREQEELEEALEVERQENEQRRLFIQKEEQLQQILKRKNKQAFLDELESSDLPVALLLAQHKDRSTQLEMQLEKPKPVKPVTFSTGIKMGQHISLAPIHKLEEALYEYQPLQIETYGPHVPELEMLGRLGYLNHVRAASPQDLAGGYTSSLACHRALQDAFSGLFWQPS

Compound: CCC(=O)N[C@@H]1CNC[C@H](Nc2ncc(C(F)(F)F)c(-c3c[nH]c4c(S(C)(=O)=O)cccc34)n2)C1 (single isomer, unassigned) [Compound 259]
- IC50 [1]: < 20 nM
- IC50 (CDK9/Cyclin T1 complex): 200 to 5000 nM
- IC50 [2]: 200 to 5000 nM
- IC50 (CDK2/Cyclin E1 complex): 200 to 5000 nM
- IC50 (A673 cells; Homo sapiens, A673, 72 h): 20 to 200 nM

Compound: CNC(=O)[C@@H]1CNC[C@@H](Nc2ncc(C(F)(F)F)c(-c3c[nH]c4ccccc34)n2)C1 [Compound 256]
- IC50 [1]: 20 to 200 nM
- IC50 (CDK9/Cyclin T1 complex): > 5000 nM
- IC50 [2]: 200 to 5000 nM
- IC50 (CDK2/Cyclin E1 complex): 200 to 5000 nM
- IC50 (A673 cells): 200 to 5000 nM

Compound: CC(C)(O)CCc1ccc2c(-c3nc(N[C@H]4CCCNC4)ncc3C(F)(F)F)c[nH]c2c1 [Compound 242, 2-methyl-4-[3-[2-[[(3S)-3-piperidyl]amino]-5-(trifluoromethyl)pyrimidin-4-yl]-1H-indol-6-yl] butan-2-ol]
- IC50 [1]: 20 to 200 nM
- IC50 (CDK9/Cyclin T1 complex): 200 to 5000 nM
- IC50 [2]: 200 to 5000 nM
- IC50 (CDK2/Cyclin E1 complex): > 5000 nM
- IC50 (A673 cells; Homo sapiens, A673, 72 h): 20 to 200 nM

Compound: O=S1(=O)CCN(c2cccc3c(-c4nc(N[C@H]5CCCNC5)ncc4Cl)c[nH]c23)CC1 [Compound 196, 5-chloro-4-[7-(1,1-dioxo-1,4-thiazinan-4-yl)-1H-indol-3-yl]-N-[(3S)-3-piperidyl]pyrimidin-2-amine]
- IC50 [1]: < 20 nM
- IC50 (CDK9/Cyclin T1 complex): 200 to 5000 nM
- IC50 [2]: 200 to 5000 nM
- IC50 (CDK2/Cyclin E1 complex): 200 to 5000 nM
- IC50 (A673 cells; Homo sapiens, A673, 72 h): 20 to 200 nM

Compound: C[C@H]1CNC[C@@H](Nc2ncc(Cl)c(-c3c[nH]c4ccccc34)n2)C1 [Compound 201, 5-chloro-4-(1H-indol-3-yl)-N-[(3S,5R)-5-methyl-3-piperidyl]pyrimidin-2-amine]
- IC50 [1]: < 20 nM
- IC50 (CDK9/Cyclin T1 complex): 200 to 5000 nM
- IC50 [2]: 20 to 200 nM
- IC50 (CDK2/Cyclin E1 complex): 200 to 5000 nM
- IC50 (A673 cells; Homo sapiens, A673, 72 h): < 20 nM

Compound: CC1(C)CCNC[C@@H]1Nc1ncc(C(F)(F)F)c(-c2c[nH]c3ccccc23)n1 (single isomer, unassigned) [Compound 209]
- IC50 [1]: 200 to 5000 nM
- IC50 (CDK9/Cyclin T1 complex): > 5000 nM
- IC50 [2]: > 5000 nM
- IC50 (CDK2/Cyclin E1 complex): > 5000 nM
- IC50 (A673 cells; Homo sapiens, A673, 72 h): 20 to 200 nM

Compound: CC(C)c1cnc(N[C@H]2CCCNC2)nc1-c1n[nH]c2nc(C#N)ccc12 [Compound 276, (S)-3-(5-isopropyl-2-(piperidin-3-ylamino)pyrimidin-4-yl)-1H-pyrazolo[3,4-b]pyridine-6-carbonitrile]
- IC50 [1]: 20 to 200 nM
- IC50 (CDK9/Cyclin T1 complex): > 5000 nM
- IC50 [2]: > 5000 nM
- IC50 (CDK2/Cyclin E1 complex): > 5000 nM
- IC50 (A673 cells; Homo sapiens, A673, 72 h): 200 to 5000 nM

Compound: FC(F)(F)c1cnc(N[C@H]2CCCNC2)nc1-c1c[nH]c2cc(-c3cccnc3)ccc12 [Compound 223, N-[(3S)-3-piperidyl]-4-[6-(3-pyridyl)-1H-indol-3-yl]-5-(trifluoromethyl) pyrimidin-2-amine]
- IC50 [1]: < 20 nM
- IC50 (CDK9/Cyclin T1 complex): 200 to 5000 nM
- IC50 [2]: 200 to 5000 nM
- IC50 (CDK2/Cyclin E1 complex): 200 to 5000 nM
- IC50 (A673 cells; Homo sapiens, A673, 72 h): 20 to 200 nM

Compound: C#Cc1cnc(N[C@H]2CCCNC2)nc1-c1c[nH]c2ccccc12 [Compound 194]
- IC50 [1]: < 20 nM
- IC50 (CDK9/Cyclin T1 complex): 200 to 5000 nM
- IC50 [2]: 200 to 5000 nM
- IC50 (CDK2/Cyclin E1 complex): 200 to 5000 nM
- IC50 (A673 cells; Homo sapiens, A673, 72 h): < 20 nM

Compound: CC1(C)CNC[C@@H](Nc2ncc(C(F)(F)F)c(-c3c[nH]c4ccccc34)n2)C1 [Compound 243, N-[(3S)-5,5-dimethyl-3-piperidyl]-4-(1H-indol-3-yl)-5-(trifluoromethyl) pyrimidin-2-amine]
- IC50 [1]: < 20 nM
- IC50 (CDK9/Cyclin T1 complex): 200 to 5000 nM
- IC50 [2]: 20 to 200 nM
- IC50 (CDK2/Cyclin E1 complex): 200 to 5000 nM
- IC50 (A673 cells; Homo sapiens, A673, 72 h): < 20 nM

Compound: FC(F)(F)c1cnc(N[C@H]2CNC[C@@H](c3nnc4ccccn34)C2)nc1-c1c[nH]c2ccccc12 [Compound 268]
- IC50 [1]: 200 to 5000 nM
- IC50 (CDK9/Cyclin T1 complex): > 5000 nM
- IC50 [2]: 200 to 5000 nM
- IC50 (CDK2/Cyclin E1 complex): > 5000 nM
- IC50 (A673 cells): 200 to 5000 nM

Compound: CC1(C)CCNC[C@H]1Nc1ncc(C(F)(F)F)c(-c2c[nH]c3ccccc23)n1 (single isomer, unassigned) [Compound 210]
- IC50 [1]: 200 to 5000 nM
- IC50 (CDK9/Cyclin T1 complex): > 5000 nM
- IC50 [2]: > 5000 nM
- IC50 (CDK2/Cyclin E1 complex): > 5000 nM
- IC50 (A673 cells; Homo sapiens, A673, 72 h): 200 to 5000 nM

Compound: CC(C)(O)Cn1cc(-c2ccc3c(-c4nc(N[C@H]5CCCNC5)ncc4C(F)(F)F)c[nH]c3c2)cn1 [Compound 214, 2-methyl-1-[4-[3-[2-[[(3S)-3-piperidyl]amino]-5-(trifluoromethyl)pyrimidin-4-yl]-1H-indol-6-yl]pyrazol-1-yl] propan-2-ol]
- IC50 [1]: 20 to 200 nM
- IC50 (CDK9/Cyclin T1 complex): 200 to 5000 nM
- IC50 [2]: 200 to 5000 nM
- IC50 (CDK2/Cyclin E1 complex): 200 to 5000 nM
- IC50 (A673 cells; Homo sapiens, A673, 72 h): 20 to 200 nM

Compound: CNS(=O)(=O)c1ccc2c(-c3nc(N[C@H]4CCCNC4)ncc3C(F)(F)F)c[nH]c2c1 [Compound 200, N-methyl-3-[2-[[(3S)-3-piperidyl]amino]-5-(trifluoromethyl)pyrimidin-4-yl]-1H-indole-6-sulfonamide]
- IC50 [1]: < 20 nM
- IC50 (CDK9/Cyclin T1 complex): 200 to 5000 nM
- IC50 [2]: 200 to 5000 nM
- IC50 (CDK2/Cyclin E1 complex): 200 to 5000 nM
- IC50 (A673 cells; Homo sapiens, A673, 72 h): 20 to 200 nM

From US20240360165A1, “INHIBITORS OF CYCLIN DEPENDENT KINASE 7 (CDK7)” (Syros Pharmaceuticals, Inc., priority 2016, published 2024)
